Experimental data: ChEMBL document CHEMBL3243976, “Ring D oxygenated Spirolactones. Characterization of human metabolic product of spironolactone” (1977)

Assays:
Format in all cases: functional, Urine
Rattus norvegicus [1] = assay: Antimineralocorticoid activity in adrenalectomized rat assessed as urinary log (Na X 10)/K at 2.4 mg, sc administered post deoxycorticosterone acetate treatment relative to control
Rattus norvegicus [2] = assay: Antimineralocorticoid activity in adrenalectomized rat assessed as urinary log (Na X 10)/K at 2.4 mg, sc administered post deoxycorticosterone acetate treatment relative to spironolactone
Rattus norvegicus [3] = assay: Antimineralocorticoid activity in po dosed adrenalectomized rat assessed as urinary log (Na X 10)/K administered post deoxycorticosterone acetate treatment relative to spironolactone
Rattus norvegicus [4] = assay: Antimineralocorticoid activity in sc dosed adrenalectomized rat assessed as urinary log (Na X 10)/K administered post deoxycorticosterone acetate treatment relative to spironolactone

Structure (SMILES)	T/C (Rattus norvegicus [1])	further results
C[C@]12CCC(=O)C=C1C=CC1=C3CC[C@@]4(CCC(=O)O4)[C@@]3(C)CC[C@@H]12	0.82	
C[C@]12CCC(=O)C=C1C=C[C@H]1[C@@H]3[C@@H](O)C[C@@]4(CCC(=O)O4)[C@@]3(C)CC[C@@H]12	0.62	
CC(=O)O[C@H]1C[C@@]2(CCC(=O)O2)[C@@]2(C)CC[C@H]3[C@@H](C=CC4=CC(=O)CC[C@@]43C)[C@H]12	0.77	
C[C@]12CCC(=O)C=C1C=C[C@@H]1[C@@H]2CC[C@@]2(C)[C@H]1C(=O)C[C@@]21CCC(=O)O1	1.01	Activity (Rattus norvegicus [2]): 15%
C[C@]12CCC(=O)C=C1C=C[C@H]1C3=CC[C@@]4(CCC(=O)O4)[C@@]3(C)CC[C@@H]12	0.67	
C[C@]12CCC(=O)C=C1C=C[C@@H]1[C@@H]2CC[C@@]2(C)[C@H]1CC[C@@]21CCC(=O)O1 [CANRENONE]		Activity (Rattus norvegicus [3]): 35%; Activity (Rattus norvegicus [4]): 38%
C[C@]12CCC(=O)C=C1C=C[C@@H]1[C@@H]2CC[C@@]2(C)[C@H]1C[C@H](O)[C@@]21CCC(=O)O1	0.84	
